# In patent publication US8653048B2 (Sanlugen Pharmatech Ltd., priority 2009, dated 2014):
# Experiments:
# [1] = Physiological stability in PBS (pH=7.4) (HPLC); assay type: physicochemical; conditions: for stability in PBS (pH=7.4) (in words): 0-24 h; for HPLC peak area of drug: PBS (pH = 7.4)
# [2] = system: H460 cells, a human lung cancer cell line, inoculated in nude mice; test: H460 tumor in nude mice, oral administration of SL-01; assay type: in vivo, Balb/c female nude mice; conditions: for Tumor Weight, Average Value: end of the experiment; for drop of animal weight: figure fits day 22 versus negative control (Table 13)
# Procedure: 1. […] Suspension formulation was prepared using 2.5% starch for intragastric administration. […] In the test, it was dissolved in normal saline and filtered with microfiltration membrane and administrated by tail vein injection. Positive control drug: Ftorafur (FT-207) produced by Qilu Pharmaceutical Co. Ltd., oral formulation.
# 2. Experimental animals: 50 Balb/c female nude mice at 4-5 weeks old, purchased from Peking University Health Science Center.
# 1. Culture of tumor cells: H460 cells were cultured in an incubator with 5% CO2 at 37° C. using RPMI-1640 nutrient solution containing 10% fetal calf serum. The cells were passaged through routine method.
# 2.2 Method of inoculating tumor cells in nude mice: cells were collected when they grew to about […] in culture flasks. Cells were washed twice with PBS before they were digested, then 1.5 mL of digestion solution juices was added into every bottle. They were observed under a microscope and the digestion was terminated after the cells were shed. Cell suspension was collected into 50 mL of centrifugal tube and centrifuged and washed twice with PBS. It was counted and suspended with 10 mL of normal saline to get the tumor cell suspension of inoculated nude mice. The tumor cells (1×10^7/0.2 mL) were inoculated in the left front armpits of mice. The tumor growth was observed after the inoculation.
# 4. Evaluation protocols for drug treating effect: these mice were weighed before drug administration and every week thereafter. The long tumor pathline (a) and the short tumor pathline (b) were measured at the same time. The formula for calculating the tumor volume is V=(a×b^2)/2. Mice were euthanized after drug administration for 3 weeks. The tumor was taken out and weighed. […] W was the tumor weight of the treatment group.
# [3] = Metabolism in liver microsomal enzymes (liver S9 fraction); assay type: in vitro ADME, mouse; conditions: for Degrade %: liver S9 fraction; for HPLC peak area of drug: liver S9 fraction + NADPH, 37° C.
# Procedure: The liver of a mouse was taken out and washed by cold normal saline and dried with filter paper, then cut into small pieces. They were washed 2-3 times with ice cold PBS (pH=7.4) until the elute became colorless or faint yellow. The small pieces of the liver were cut into fragments. Then PBS (pH=7.4) solution in an amount four times of the weight of the liver was added. The liver fragments were homogenated under ice-bath to avoid the down-regulation of enzymatic activity. The homogenated mixture was transferred into a centrifuge tube with stopper and centrifuged for 20 min at 4000 r/min to get the supernatant. Then, the supernatant was centrifuged at 12000 r/min for 20 min to get the supernatant, which was the S9 fraction.
# Liver microsomal S9 was mixed with drug solutions. 1800 μL of the mixture in test tube was pre-incubated in a water-bath for 5 min at 37° C. 200 μL of 10 mmol/L NADPH solution was added to start the reaction. The final reaction volume was 2 mL. 200 μL of the incubation solution was taken at 0 min, 10 min, 20 min, 40 min, 1 h, 2 h, 4 h, 6 h, 12 h, respectively. 1 mL of ice cold isopropanol was added into the solution immediately and vortexed for 30 s and kept still for 5 min. 2.5 mL of EtOAc was added and vortexed and centrifuged at 4000 rpm for 15 min. The supernatant was taken and dried by blowing in nitrogen. The dried sample was redissolved in 200 μL HPLC mobile phase solution. 20 μL sample was loaded to the HPLC. The chromatography and peak area were recorded.
# [4] = SL-01 middle dosage 60 mg/kg gavage
# [5] = SL-01 middle dosage group 60 mg/kg gavage
# [6] = SL-01 small dosage 30 mg/kg gavage
# [7] = SL-01 small dosage group 30 mg/kg gavage
smiles,measurement,setting,value
"Nc1ccn([C@@H]2O[C@H](CO)[C@@H](O)C2(F)F)c(=O)n1 [Gemcitabine, gemcitabine, reference compound]",stability in PBS (pH=7.4) (in words),[1],stable
same,HPLC peak area of drug,[1]; 0 min,657583.875
same,HPLC peak area of drug,[1]; 1 h,646932.375
same,HPLC peak area of drug,[1]; 2 h,651326.375
same,HPLC peak area of drug,[1]; 4 h,647537.813
same,HPLC peak area of drug,[1]; 6 h,618724
same,HPLC peak area of drug,[1]; 8 h,635026.875
same,HPLC peak area of drug,[1]; 12 h,600425.125
same,HPLC peak area of drug,[1]; 24 h,603669.813
same,Mean Volume of Tumor,"[2]; Gemcitabine 30 mg/kg i.v. 1 per 3 days, day 7",700.7 mm^3
same,Mean Volume of Tumor,"[2]; Gemcitabine 30 mg/kg i.v. 1 per 3 days, day 14",759.7 mm^3
same,Mean Volume of Tumor,"[2]; Gemcitabine 30 mg/kg i.v. 1 per 3 days, day 18",804.5 mm^3
same,Mean Volume of Tumor,"[2]; Gemcitabine 30 mg/kg i.v. 1 per 3 days, day 22",868.0 mm^3
same,Mean Weight of Nude Mice,"[2]; Gemcitabine 30 mg/kg i.v., day 0",19.1 g
same,Mean Weight of Nude Mice,"[2]; Gemcitabine 30 mg/kg i.v., day 7",19.0 g
same,Mean Weight of Nude Mice,"[2]; Gemcitabine 30 mg/kg i.v., day 14",18.6 g
same,Mean Weight of Nude Mice,"[2]; Gemcitabine 30 mg/kg i.v., day 22",18.2 g
same,"Tumor Weight, Average Value",[2]; Gemcitabine 30 mg/kg i.v.,0.89 g
same,"efficacy by t-test, in words",[2]; gemcitabine group 30 mg/kg i.v.,significant efficacy
same,Degrade %,[3]; 0 min,0%
same,Degrade %,[3]; 1 h,3.64%
same,Degrade %,[3]; 2 h,56.16%
same,Degrade %,[3]; 4 h,72.02%
same,Degrade %,[3]; 6 h,85.55%
same,Degrade %,[3]; 12 h,95.13%
"CCCCCCCCCCCCOC(=O)c1nccnc1C(=O)Nc1ccn([C@@H]2O[C@H](CO)[C@@H](O)C2(F)F)c(=O)n1 [Compound 4, Dodecyl-3-((1-((2R,4R,5R)-3,3-difluoro-4-hydroxy-5-(hydroxymethyl)-tetrahydrofuran-2-yl)-2-oxo-1,2-dihydropyrimidin-4-yl)carbamoyl)pyrazine-2-carboxylate]",stability in PBS (pH=7.4) (in words),[1],stable
same,HPLC peak area of drug,[1]; 0 min,399795.688
same,HPLC peak area of drug,[1]; 1 h,379856.688
same,HPLC peak area of drug,[1]; 2 h,397725
same,HPLC peak area of drug,[1]; 4 h,373725.406
same,HPLC peak area of drug,[1]; 6 h,360109.813
same,HPLC peak area of drug,[1]; 8 h,362068.688
same,HPLC peak area of drug,[1]; 12 h,386125.688
same,HPLC peak area of drug,[1]; 24 h,387541.688
same,Mean Volume of Tumor,"[2]; SL-01 middle dosage 60 mg/kg gastric gavage 1 per 3 days, day 7",739.6 mm^3
same,Mean Volume of Tumor,"[2]; SL-01 middle dosage 60 mg/kg gastric gavage 1 per 3 days, day 14",823.4 mm^3
same,Mean Volume of Tumor,"[2]; SL-01 middle dosage 60 mg/kg gastric gavage 1 per 3 days, day 18",870.2 mm^3
same,Mean Volume of Tumor,"[2]; SL-01 middle dosage 60 mg/kg gastric gavage 1 per 3 days, day 22",905.3 mm^3
same,Inhibition ratio (tumor weight),[2]; [4],53.7%
same,Mean Weight of Nude Mice,"[2]; SL-01 middle dosage 60 mg/kg gavage, day 0",19.5 g
same,Mean Weight of Nude Mice,"[2]; SL-01 middle dosage 60 mg/kg gavage, day 7",19.1 g
same,Mean Weight of Nude Mice,"[2]; SL-01 middle dosage 60 mg/kg gavage, day 14",19.6 g
same,Mean Weight of Nude Mice,"[2]; SL-01 middle dosage 60 mg/kg gavage, day 22",19.6 g
same,"Tumor Weight, Average Value",[2]; [4],0.95 g
same,"efficacy by t-test, in words",[2]; [5],significant efficacy
same,drop of animal weight,[2]; [5],14.8%
same,Mean Volume of Tumor,"[2]; SL-01 small (low) dosage 30 mg/kg gastric gavage 1 per 3 days, day 7",761.3 mm^3
same,Mean Volume of Tumor,"[2]; SL-01 small (low) dosage 30 mg/kg gastric gavage 1 per 3 days, day 14",840.9 mm^3
same,Mean Volume of Tumor,"[2]; SL-01 small (low) dosage 30 mg/kg gastric gavage 1 per 3 days, day 18",950.5 mm^3
same,Mean Volume of Tumor,"[2]; SL-01 small (low) dosage 30 mg/kg gastric gavage 1 per 3 days, day 22",1092.0 mm^3
same,Inhibition ratio (tumor weight),[2]; [6],48.3%
same,Mean Weight of Nude Mice,"[2]; SL-01 small dosage 30 mg/kg gavage, day 0",19.6 g
same,Mean Weight of Nude Mice,"[2]; SL-01 small dosage 30 mg/kg gavage, day 7",19.3 g
same,Mean Weight of Nude Mice,"[2]; SL-01 small dosage 30 mg/kg gavage, day 14",19.9 g
same,Mean Weight of Nude Mice,"[2]; SL-01 small dosage 30 mg/kg gavage, day 22",19.7 g
same,"Tumor Weight, Average Value",[2]; [6],1.06 g
same,"efficacy by t-test, in words",[2]; [7],significant efficacy
same,drop of animal weight,[2]; [7],14.3%
same,HPLC peak area of drug,[3]; 0 min,179613.3
same,HPLC peak area of drug,[3]; 1 h,172893.5
same,HPLC peak area of drug,[3]; 2 h,142419.3
same,HPLC peak area of drug,[3]; 4 h,64632.59
same,HPLC peak area of drug,[3]; 6 h,27009.4
same,HPLC peak area of drug,[3]; 12 h,18730.51
same,Degrade %,[3]; 0 min,0%
same,Degrade %,[3]; 1 h,3.74%
same,Degrade %,[3]; 2 h,20.71%
same,Degrade %,[3]; 4 h,64.02%
same,Degrade %,[3]; 6 h,84.96%
same,Degrade %,[3]; 12 h,89.57%
